Entries after “also recorded” stand apart in the source; their conditions may differ.

Test [1] in a line: Confocal imaging of giant vesicles containing DPPC-TC-ONOO^− treated with redox species. How it is done: FIG. 8A: conceptual illustration of function of the model protocell. FIG. 8B: confocal images acquired for untreated (top panel) and peroxynitrite-treated (middle and bottom panels) GVs. FIG. 8C: confocal images acquired for GVs treated with other RNS and ROS. FIGS. 8B-8C: vesicles were prepared from POPC (98.5%, molar ratio) and DPPC-TC-ONOO^− (1%) via electroformation. Liss-Rhod PE dye (red, 560 nm excitation) was used at 0.5 mol % to label vesicle membranes. […] Scale bar=5 μm. In most biomimetic systems that rely on compartmentalization, physical membrane boundaries are comprised of self-assembled lipids. Biomimetic membranes can be represented by GVs, which have dimensional properties (1-30 μm in diameter) relevant to those of mammalian cells (10-100 μm), display physical characteristics feasible for confocal fluorescence imaging, and are utilized for bottom-up construction of biomimetic systems. […] Given the longer timescale required for data acquisition in microscopy compared to fluorescence measurements by plate reader, the pH of imaging buffers was set to 8.5, which extended the lifetime of peroxynitrite. […] Vesicle size distribution was analyzed by dynamic light scattering (DLS), confirming the presence of GVs. […] GVs were then imaged using fluorescence confocal microscopy. […]

The subject of test [2] is CD11b^+ macrophage population from BAL cells. Put plainly: Murine model of ITB-induced ALI: DPPC-TC fluorescence in BAL cells by flow cytometry. The test is classed as in vivo, mice. Conditions: 0.5 mM LNPs (5 mol % probe) on day 3, BAL 3 hour-post instillation, n = 3. The text has this:
FIGS. 11A-11B: flow cytometry analysis of myeloid-derived BAL cells for migratory phenotype and DPPC-TC-ONOO^− probe activity in murine model of ALI. FIG. 11A: conceptual illustration of ITB-induced ALI and LNP instillation. FIG. 11B: classification of myeloid-derived BAL cells by migratory phenotype (CD11b+) and DPPC-TC fluorescence. Quadrant plots are shown for individual mice, which were used to quantify DPPC-TC as a measure of peroxynitrite generation. After successfully imaging the iNOS dependent peroxynitrite activity in both HeLa and RAW264.7, the potential of DPPC-TC-ONOO^− for detecting peroxynitrite generated in lung tissue injury using a pre-established murine model of ALI was explored (FIGS. 11A-11B). During ALI, release of cytokines and chemokines, such as tumor necrosis factor-alpha (TNF-α) and interleukin-1 beta ([…]), recruit macrophages and other immune cells to the site of injury. During the initial phase of injury (d0-d3), pro-inflammatory macrophages are dominant, which is associated with higher levels of iNOS expression. Herein, a previously reported ITB method was employed, which causes a severe inflammatory response characterized by infiltration of immune cells, which is dependent upon iNOS activation. For a generalizable and biocompatible instillation protocol, LNP concentrations ranging from 0.5 to 2.0 mM were evaluated. LNPs carrying DPPC-TC (5 mol % of the lipid content) were employed in C57BL6/J mice and the viability of the cells from BAL was analyzed via flow cytometry. Results indicated 94% viability at 0.5 mM LNP concentration, which was employed for the subsequent experiments. On d0, mice (C57BL6/J or iNOS^−/−) were anesthetized and received an intratracheal instillation of either PBS (control) or bleomycin (FIGS. 11A-11B). To detect the peroxynitrite generation during the early inflammatory response, mice were again anesthetized and instilled with 0.5 mM LNPs containing DPPC-TC-ONOO^− (5 mol % of the lipid content) on day 3. […] The migratory population was further analyzed for DPPC-TC signal quantification (Table 4).

For `CCCCCCCCCCCCCCCC(=O)OCC(COP(=O)([O-])OCC[N+](C)(C)Cc1cn(-c2cc3ccc(OC(=O)Oc4ccc(CCC(=O)C(F)(F)F)cc4)cc3oc2=O)nn1)OC(=O)CCCCCCCCCCCCCCC` (racemic) [DPPC-TC-ONOO^−], the “GV membrane fluorescence at 405 nm excitation” value in test [1] (GVs of POPC and DPPC-TC-ONOO^− (~99:1), ONOO^− 100 μM) was “substantial increase in membrane fluorescence; also recorded: strong fluorescence”. The “GV fluorescence at 405 nm excitation” value in test [1] (GVs of POPC and DPPC-TC-ONOO^−, other redox species (NO·, H2O2, HO·, ^1O2, O2·^−) 100 μM, 5 min) is “essentially no fluorescence generation; also recorded: minimal fluorescence”. Besides, the entries for the “DPPC-TC p:n ratio” value in test [2] (WT-ITB), in test [2] (WT-PBS) and in test [2] (iNOS^−/−-ITB) were 0.72 ± 0.008, 0.55 ± 0.021 and 0.56 ± 0.018, respectively.

These data come from patent US20240385182A1, “MASKED FLUOROGENIC LIPID COMPOUNDS, LIPID PARTICLES COMPRISING THE SAME, AND METHODS OF USE THEREOF” (Rutgers, The State University of New Jersey, priority 2023, published 2024).
